According to patent US8604023B2, “1,4-benzodiazepinone compounds and their use in treating cancer” (The Regents of the University of Michigan, priority 2009, dated 2013):

Assays:
UACC-62 = assay: cancer cell growth inhibition (SRB); format: cell-based, human; settings: Melanoma
MDA-MB-435 = assay: cancer cell growth inhibition (SRB); format: cell-based, human; settings: Breast Cancer
TK-10 = assay: cancer cell growth inhibition (SRB); format: cell-based, human; settings: Renal Cancer
LOXIMVI = assay: cancer cell growth inhibition (SRB); format: cell-based, human; settings: Melanoma
RPMI-8226 = assay: cancer cell growth inhibition (SRB); format: cell-based, human; settings: Leukemia
EKVX = assay: cancer cell growth inhibition (SRB); format: cell-based, human; settings: Non-Small Cell Lung Cancer
OVCAR-3 = assay: cancer cell growth inhibition (SRB); format: cell-based, human; settings: Ovarian Cancer
SF-539 = assay: cancer cell growth inhibition (SRB); format: cell-based, human; settings: CNS Cancer
SN12C = assay: cancer cell growth inhibition (SRB); format: cell-based, human; settings: Renal Cancer
OVCAR-4 = assay: cancer cell growth inhibition (SRB); format: cell-based, human; settings: Ovarian Cancer
K-562 = assay: cancer cell growth inhibition (SRB); format: cell-based, human; settings: Leukemia
SK-MEL-5 = assay: cancer cell growth inhibition (SRB); format: cell-based, human; settings: Melanoma
SW-620 = assay: cancer cell growth inhibition (SRB); format: cell-based, human; settings: Colon Cancer
HOP-62 = assay: cancer cell growth inhibition (SRB); format: cell-based, human; settings: Non-Small Cell Lung Cancer
SK-MEL-28 = assay: cancer cell growth inhibition (SRB); format: cell-based, human; settings: Melanoma
MDA-MB-231/ATCC = assay: cancer cell growth inhibition (SRB); format: cell-based, human; settings: Breast Cancer
SF-268 = assay: cancer cell growth inhibition (SRB); format: cell-based, human; settings: CNS Cancer
MOLT-4 = assay: cancer cell growth inhibition (SRB); format: cell-based, human; settings: Leukemia
A498 = assay: cancer cell growth inhibition (SRB); format: cell-based, human; settings: Renal Cancer
A549/ATCC = assay: cancer cell growth inhibition (SRB); format: cell-based, human; settings: Non-Small Cell Lung Cancer
ACHN = assay: cancer cell growth inhibition (SRB); format: cell-based, human; settings: Renal Cancer
MALME-3M = assay: cancer cell growth inhibition (SRB); format: cell-based, human; settings: Melanoma
SR = assay: cancer cell growth inhibition (SRB); format: cell-based, human; settings: Leukemia
HCT-15 = assay: cancer cell growth inhibition (SRB); format: cell-based, human; settings: Colon Cancer
M14 = assay: cancer cell growth inhibition (SRB); format: cell-based, human; settings: Melanoma
SF-295 = assay: cancer cell growth inhibition (SRB); format: cell-based, human; settings: CNS Cancer
NCI/ADR-RES = assay: cancer cell growth inhibition (SRB); format: cell-based, human; settings: Breast Cancer
NCI-H322M = assay: cancer cell growth inhibition (SRB); format: cell-based, human; settings: Non-Small Cell Lung Cancer
NCI-H460 = assay: cancer cell growth inhibition (SRB); format: cell-based, human; settings: Non-Small Cell Lung Cancer
RXF 393 = assay: cancer cell growth inhibition (SRB); format: cell-based, human; settings: Renal Cancer
HCC-2998 = assay: cancer cell growth inhibition (SRB); format: cell-based, human; settings: Colon Cancer
SK-OV-3 = assay: cancer cell growth inhibition (SRB); format: cell-based, human; settings: Ovarian Cancer
Ramos cells = assay: cytotoxicity in Ramos cells; format: cell-based; settings: Homo sapiens
Procedure: The compounds listed in Table 5 were tested for cytotoxicity in Ramos cells. The assay was conducted as described in K. M. Johnson et al. Chemistry & Biology 2005, 12, 485-496.

786-0 = assay: cancer cell growth inhibition (SRB); format: cell-based, human; settings: Renal Cancer
CCRF-CEM = assay: cancer cell growth inhibition (SRB); format: cell-based, human; settings: Leukemia
MCF7 = assay: cancer cell growth inhibition (SRB); format: cell-based, human; settings: Breast Cancer
NCI-H23 = assay: cancer cell growth inhibition (SRB); format: cell-based, human; settings: Non-Small Cell Lung Cancer
HOP-92 = assay: cancer cell growth inhibition (SRB); format: cell-based, human; settings: Non-Small Cell Lung Cancer
T-47D = assay: cancer cell growth inhibition (SRB); format: cell-based, human; settings: Breast Cancer
DU-145 = assay: cancer cell growth inhibition (SRB); format: cell-based, human; settings: Prostate Cancer
UACC-257 = assay: cancer cell growth inhibition (SRB); format: cell-based, human; settings: Melanoma
BT-549 = assay: cancer cell growth inhibition (SRB); format: cell-based, human; settings: Breast Cancer
NCI-H522 = assay: cancer cell growth inhibition (SRB); format: cell-based, human; settings: Non-Small Cell Lung Cancer
SK-MEL-2 = assay: cancer cell growth inhibition (SRB); format: cell-based, human; settings: Melanoma
UO-31 = assay: cancer cell growth inhibition (SRB); format: cell-based, human; settings: Renal Cancer
HCT-116 = assay: cancer cell growth inhibition (SRB); format: cell-based, human; settings: Colon Cancer
KM12 = assay: cancer cell growth inhibition (SRB); format: cell-based, human; settings: Colon Cancer
IGROV1 = assay: cancer cell growth inhibition (SRB); format: cell-based, human; settings: Ovarian Cancer
SNB-19 = assay: cancer cell growth inhibition (SRB); format: cell-based, human; settings: CNS Cancer

**Q.** What does the source list for `CN1C(=O)C(Cc2ccc3ccccc3c2)N=C(c2cn[nH]c2)c2cc(Cl)ccc21` (stereo not shown) [Compound V-38]?
**A.** growth inhibition of the cancer cells (UACC-62): +++ (at least 75% growth inhibition of the cancer cells); growth inhibition of the cancer cells (MDA-MB-435): + (less than 40% growth inhibition of the cancer cells); growth inhibition of the cancer cells (TK-10): +++ (at least 75% growth inhibition of the cancer cells); growth inhibition of the cancer cells (LOXIMVI): +++ (at least 75% growth inhibition of the cancer cells); growth inhibition of the cancer cells (RPMI-8226): + (less than 40% growth inhibition of the cancer cells); growth inhibition of the cancer cells (EKVX): ++ (40%-75% growth inhibition of the cancer cells); growth inhibition of the cancer cells (OVCAR-3): +++ (at least 75% growth inhibition of the cancer cells); growth inhibition of the cancer cells (SF-539): +++ (at least 75% growth inhibition of the cancer cells); growth inhibition of the cancer cells (SN12C): ++ (40%-75% growth inhibition of the cancer cells); growth inhibition of the cancer cells (OVCAR-4): ++ (40%-75% growth inhibition of the cancer cells); growth inhibition of the cancer cells (K-562): + (less than 40% growth inhibition of the cancer cells); growth inhibition of the cancer cells (SK-MEL-5): +++ (at least 75% growth inhibition of the cancer cells); growth inhibition of the cancer cells (SW-620): +++ (at least 75% growth inhibition of the cancer cells); growth inhibition of the cancer cells (HOP-62): +++ (at least 75% growth inhibition of the cancer cells); growth inhibition of the cancer cells (SK-MEL-28): +++ (at least 75% growth inhibition of the cancer cells); growth inhibition of the cancer cells (MDA-MB-231/ATCC): + (less than 40% growth inhibition of the cancer cells); growth inhibition of the cancer cells (SF-268): +++ (at least 75% growth inhibition of the cancer cells); growth inhibition of the cancer cells (MOLT-4): + (less than 40% growth inhibition of the cancer cells); growth inhibition of the cancer cells (A498): +++ (at least 75% growth inhibition of the cancer cells); growth inhibition of the cancer cells (A549/ATCC): ++ (40%-75% growth inhibition of the cancer cells); growth inhibition of the cancer cells (ACHN): +++ (at least 75% growth inhibition of the cancer cells); growth inhibition of the cancer cells (MALME-3M): +++ (at least 75% growth inhibition of the cancer cells); growth inhibition of the cancer cells (SR): − (an apparent increase in cancer cell growth upon administration of the test compound); growth inhibition of the cancer cells (HCT-15): ++ (40%-75% growth inhibition of the cancer cells); growth inhibition of the cancer cells (M14): +++ (at least 75% growth inhibition of the cancer cells); growth inhibition of the cancer cells (SF-295): + (less than 40% growth inhibition of the cancer cells); growth inhibition of the cancer cells (NCI/ADR-RES): + (less than 40% growth inhibition of the cancer cells); growth inhibition of the cancer cells (NCI-H322M): + (less than 40% growth inhibition of the cancer cells); growth inhibition of the cancer cells (NCI-H460): ++ (40%-75% growth inhibition of the cancer cells); growth inhibition of the cancer cells (RXF 393): +++ (at least 75% growth inhibition of the cancer cells); growth inhibition of the cancer cells (HCC-2998): +++ (at least 75% growth inhibition of the cancer cells); growth inhibition of the cancer cells (SK-OV-3): + (less than 40% growth inhibition of the cancer cells); EC50 (Ramos cells): ≤ 5 µM; growth inhibition of the cancer cells (786-0): +++ (at least 75% growth inhibition of the cancer cells); growth inhibition of the cancer cells (CCRF-CEM): + (less than 40% growth inhibition of the cancer cells); growth inhibition of the cancer cells (MCF7): ++ (40%-75% growth inhibition of the cancer cells); growth inhibition of the cancer cells (NCI-H23): +++ (at least 75% growth inhibition of the cancer cells); growth inhibition of the cancer cells (HOP-92): ++ (40%-75% growth inhibition of the cancer cells); growth inhibition of the cancer cells (T-47D): + (less than 40% growth inhibition of the cancer cells); growth inhibition of the cancer cells (DU-145): +++ (at least 75% growth inhibition of the cancer cells); growth inhibition of the cancer cells (UACC-257): +++ (at least 75% growth inhibition of the cancer cells); growth inhibition of the cancer cells (BT-549): +++ (at least 75% growth inhibition of the cancer cells); growth inhibition of the cancer cells (NCI-H522): ++ (40%-75% growth inhibition of the cancer cells); growth inhibition of the cancer cells (SK-MEL-2): ++ (40%-75% growth inhibition of the cancer cells); growth inhibition of the cancer cells (UO-31): +++ (at least 75% growth inhibition of the cancer cells); growth inhibition of the cancer cells (HCT-116): +++ (at least 75% growth inhibition of the cancer cells); growth inhibition of the cancer cells (KM12): +++ (at least 75% growth inhibition of the cancer cells); growth inhibition of the cancer cells (IGROV1): +++ (at least 75% growth inhibition of the cancer cells); growth inhibition of the cancer cells (SNB-19): ++ (40%-75% growth inhibition of the cancer cells)
